{
  "source": "patent US6417247B1",
  "about": "“Polymer/ceramic composites” (priority 1997, dated 2002)",
  "test": "Release of model compounds from chitosan-calcium phosphate composites in PBS",
  "details": "chitosan-TCP composite, PBS pH 7.4, 37° C., FIG. 12",
  "data": [
    {"smiles": "O=c1[nH]cc(F)c(=O)[nH]1", "note": "[5-FU, 5-fluorouracil]", "values": [
      {"measurement": "time over which the model compound was released from the composite", "value": "≤ 10", "unit": "h"}
    ]}
  ]
}
